This passage reports IC50 results from patent publication US11174251B2, “Compositions and methods for inhibition of the JAK pathway” (Rigel Pharmaceuticals, Inc., priority 2010, dated 2021).

The test concerns the target T1, JAK3 (Homo sapiens, UniProt P52333).
T1 construct: The Ramos B-cell line was acquired from ATCC (ATCC Catalog No. CRL-1596); host or cells: Ramos B-cell line (human)
T1 sequence (P52333 1-1124): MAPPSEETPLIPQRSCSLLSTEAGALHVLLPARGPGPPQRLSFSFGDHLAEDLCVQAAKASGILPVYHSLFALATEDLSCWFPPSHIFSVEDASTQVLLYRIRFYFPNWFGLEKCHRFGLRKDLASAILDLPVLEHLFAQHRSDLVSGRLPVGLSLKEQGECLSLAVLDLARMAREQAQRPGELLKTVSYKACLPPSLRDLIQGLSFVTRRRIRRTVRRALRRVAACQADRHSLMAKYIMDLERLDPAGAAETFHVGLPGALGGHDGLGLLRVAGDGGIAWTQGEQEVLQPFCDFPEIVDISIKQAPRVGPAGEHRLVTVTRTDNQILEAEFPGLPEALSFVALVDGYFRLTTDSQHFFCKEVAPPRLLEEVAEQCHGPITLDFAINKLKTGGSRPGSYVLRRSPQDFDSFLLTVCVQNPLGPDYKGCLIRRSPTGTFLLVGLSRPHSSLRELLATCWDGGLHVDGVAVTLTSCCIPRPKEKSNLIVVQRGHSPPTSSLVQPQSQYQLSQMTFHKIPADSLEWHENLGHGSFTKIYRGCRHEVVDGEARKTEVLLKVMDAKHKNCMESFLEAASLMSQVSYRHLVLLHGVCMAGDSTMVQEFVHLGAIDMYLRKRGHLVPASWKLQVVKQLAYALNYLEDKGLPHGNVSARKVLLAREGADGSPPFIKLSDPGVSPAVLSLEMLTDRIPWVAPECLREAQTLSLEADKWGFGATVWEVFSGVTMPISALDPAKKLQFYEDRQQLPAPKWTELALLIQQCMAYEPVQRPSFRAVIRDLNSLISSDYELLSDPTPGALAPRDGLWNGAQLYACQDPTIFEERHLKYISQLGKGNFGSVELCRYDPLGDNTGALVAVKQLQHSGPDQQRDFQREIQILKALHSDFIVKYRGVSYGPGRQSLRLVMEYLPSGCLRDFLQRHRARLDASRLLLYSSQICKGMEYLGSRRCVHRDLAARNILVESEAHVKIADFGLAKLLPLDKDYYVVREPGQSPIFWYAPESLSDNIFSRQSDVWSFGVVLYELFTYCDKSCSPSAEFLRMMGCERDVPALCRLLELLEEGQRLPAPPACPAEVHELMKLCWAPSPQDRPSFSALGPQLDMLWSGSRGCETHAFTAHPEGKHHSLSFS
As to the kind of experiment: Assay for CD23 expression on Ramos B-cells stimulated by IL-4 (Table IV: ability to inhibit JAK3 activity). It counts as cell-based. The following applies: tested under conditions described in Example 3 (so in the source). The procedure, abridged:
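Human Ramos B cells in RPMI with 5% serum, pre-incubated 1 h at 37 °C with compound or DMSO, then stimulated with IL-4 (final 50 units/mL) for 20–24 h. Surface CD23 upregulation measured by FACS staining as readout of JAK1/JAK3–Stat-6 signalling.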

Structures can show the parent of a compound that is named as a salt.

A word on the IC50: it is the concentration that gives 50% inhibition. Compound `COc1cc(Nc2ncc(F)c(Nc3ccc4oc(=O)[nH]c4c3)n2)cc(OC)c1C` [Compound I-194, 5-(2-(3,5-dimethoxy-4-methylphenylamino)-5-fluoropyrimidin-4-ylamino)benzo[d]oxazol-2(3H)-one trifluoroacetate salt] displayed an IC50 of 500 to 5000 nM.
The result for `CCCNC(=O)c1ccc(Nc2ncc(F)c(Nc3ccc4oc(=O)[nH]c4c3)n2)cc1` [Compound I-160, 4-(5-fluoro-4-(2-oxo-2,3-dihydrobenzo[d]oxazol-5-ylamino)pyrimidin-2-ylamino)-N-propylbenzamide formate salt] reads < 500 nM; that for `O=C(NC1CCC1)c1ccc(Nc2ncc(F)c(Nc3ccc4oc(=O)[nH]c4c3)n2)cc1` [Compound I-159, N-cyclobutyl-4-(5-fluoro-4-(2-oxo-2,3-dihydrobenzo[d]oxazol-5-ylamino)pyrimidin-2-ylamino)benzamide formate salt], < 500 nM; that for `CCOc1cc(Nc2ncc(C)c(Nc3ccc4oc(=O)[nH]c4c3)n2)cc(C)c1C` [Compound I-103, 5-(2-(3-ethoxy-4,5-dimethylphenylamino)-5-methylpyrimidin-4-ylamino)benzo[d]oxazol-2(3H)-one ditrifluoroacetate salt], < 500 nM.
As for `Cc1cc(Nc2ncc(F)c(Nc3ccc4oc(=O)[nH]c4c3)n2)cc(C)c1C#N` [Compound I-70, 4-(5-fluoro-4-(2-oxo-2,3-dihydrobenzo[d]oxazol-5-ylamino)pyrimidin-2-ylamino)-2,6-dimethylbenzonitrile], the figure is < 500 nM; as for `COc1cc(Nc2ncc(C)c(Nc3ccc4oc(=O)[nH]c4c3)n2)ccn1` [II-17, N2-(2-methoxypyridin-4-yl)-5-methyl-N4-(2-oxo-2,3-dihydro-1,3-benzoxazol-5-yl)-2,4-pyrimidinediamine], < 500 nM; as for `Cc1cc(Nc2ncc(F)c(Nc3ccc4oc(=O)[nH]c4c3)n2)cc(C)c1F` [Compound I-215, N2-(3,5-dimethyl-4-fluoro)phenyl-5-fluoro-N4-(2-oxo-2,3-dihydro-1,3-benzoxazol-5-yl)-2,4-pyrimidinediamine], < 500 nM.
The result for `Cc1cc(Nc2ncc(C)c(Nc3ccc4oc(=O)[nH]c4c3)n2)cc(C)n1` [II-19, N2-(2,6-dimethylpyridin-4-yl)-5-methyl-N4-(2-oxo-2,3-dihydro-1,3-benzoxazol-5-yl)-2,4-pyrimidinediamine] reads < 500 nM; that for `Cc1cc(Nc2nc(Nc3ccc(F)c(S(C)(=O)=O)c3)ncc2F)cc2[nH]c(=O)oc12` [Compound I-173, 5-(2-(4-fluoro-3-(methylsulfonyl)phenylamino)-5-fluoropyrimidin-4-ylamino)-7-methylbenzo[d]oxazol-2(3H)-one trifluoroacetate salt], < 500 nM; that for `O=c1[nH]c2cc(Nc3nc(Nc4ccc(F)c(-c5cccnc5)c4)ncc3F)ccc2o1` [Compound I-206, 5-(2-(4-fluoro-3-(pyridin-3-yl)phenylamino)-5-fluoropyrimidin-4-ylamino)benzo[d]oxazol-2(3H)-one], < 500 nM.
On to `O=c1[nH]c2cc(Nc3nc(Nc4ccc5c(c4)CCC(N4CCCC4)CC5)ncc3F)ccc2o1` (stereo not shown) [II-2, 5-(5-fluoro-2-(7-(pyrrolidin-1-yl)-6,7,8,9-tetrahydro-5H-benzo[7]annulen-2-ylamino)pyrimidin-4-ylamino)benzo[d]oxazol-2(3H)-one diformate salt], for which the IC50 is < 500 nM.
As for `Cc1cnc(Nc2cc(C)c(C)c(C)c2)nc1Nc1cc(CN(C)C)c2oc(=O)[nH]c2c1` [Compound I-89, 5-(2-(3,4,5-trimethylphenylamino)-5-methylpyrimidin-4-ylamino)-7-((dimethylamino)methyl)benzo[d]oxazol-2(3H)-one ditrifluoroacetate salt], the figure is 500 to 5000 nM; as for `O=C1CCCCc2cc(Nc3ncc(F)c(Nc4ccc5oc(=O)[nH]c5c4)n3)ccc21` [II-5, 5-(5-fluoro-2-(5-oxo-6,7,8,9-tetrahydro-5H-benzo[7]annulen-2-ylamino)pyrimidin-4-ylamino)benzo[d]oxazol-2(3H)-one formate salt], < 500 nM.
With `COc1cc(Nc2ncc(C)c(Nc3cc(C)c4oc(=O)[nH]c4c3)n2)cc(C)c1C` [Compound I-109, 5-(2-(3-methoxy-4,5-dimethylphenylamino)-5-methylpyrimidin-4-ylamino)-7-methylbenzo[d]oxazol-2(3H)-one trifluoroacetate trifluoroacetate salt], the IC50 was < 500 nM.
The result for `COc1cc(Nc2ncc(F)c(Nc3ccc4oc(=O)[nH]c4c3)n2)cc(C)c1F` [Compound I-181, 5-(2-(4-fluoro-3-methoxy-5-methylphenylamino)-5-fluoropyrimidin-4-ylamino)benzo[d]oxazol-2(3H)-one trifluoroacetate salt] reads < 500 nM; that for `O=c1[nH]c2cc(Nc3nc(Nc4ccccc4)ncc3[N+](=O)[O-])ccc2o1` [Compound I-41, 5-(5-nitro-2-(phenylamino)pyrimidin-4-ylamino)benzo[d]oxazol-2(3H)-one trifluoroacetate salt], 5000 to 10000 nM.
As for `Cc1cc(Nc2ncc(F)c(Nc3cc(F)c4oc(=O)[nH]c4c3)n2)cc(C)c1F` [Compound I-189, 5-(2-(4-fluoro-3,5-dimethylphenylamino)-5-fluoropyrimidin-4-ylamino)-7-fluorobenzo[d]oxazol-2(3H)-one trifluoroacetate salt], the figure is < 500 nM.
The result for `COc1cc(Nc2ncc(C)c(Nc3cc(F)c4oc(=O)[nH]c4c3)n2)cc(C)c1C` [Compound I-111, 5-(2-(3-methoxy-4,5-dimethylphenylamino)-5-methylpyrimidin-4-ylamino)-7-fluorobenzo[d]oxazol-2(3H)-one trifluoroacetate trifluoroacetate salt] reads < 500 nM; that for `NC(=O)c1ccc(Nc2ncc([N+](=O)[O-])c(Nc3ccc4oc(=O)[nH]c4c3)n2)cc1` [Compound I-60, 4-(5-nitro-4-(2-oxo-2,3-dihydrobenzo[d]oxazol-5-ylamino)pyrimidin-2-ylamino)benzamide trifluoroacetate salt], > 10000 nM.
For `COc1ccc(Nc2ncc(F)c(Nc3ccc4oc(=O)[nH]c4c3)n2)cc1C(F)F` [Compound I-197, 5-(2-(3-(difluoromethyl)-4-methoxyphenylamino)-5-fluoropyrimidin-4-ylamino)benzo[d]oxazol-2(3H)-one formate salt], the IC50 is < 500 nM.
The result for `Cc1cnc(Nc2cc(C)c(C)c(C)c2)nc1Nc1ccc2oc(=O)n(COP(=O)(OCCN(C)C)OCCN(C)C)c2c1` [Compound I-134, N4-{3-bis[2-(N,N-dimethylamino)ethoxy]phosphinyloxymethyl-2-oxo-2,3-dihydro-1,3-benzoxazol-5-yl}-5-methyl-N2-(3,4,5-trimethyl)phenyl-2,4-pyrimidinediamine] reads > 10000 nM; that for `[2H]C([2H])([2H])c1c(C)cc(Nc2ncc(F)c(Nc3ccc4oc(=O)[nH]c4c3)n2)cc1C` [Compound I-37, 5-(5-fluoro-2-(3,5-dimethyl-4-d3-methyl)phenylamino)pyrimidin-4-ylamino)benzo[d]oxazol-2(3H)-one trifluoroacetate salt], > 10000 nM; that for `Cc1cnc(Nc2ccc3c(c2)COC3=O)nc1Nc1ccc2oc(=O)[nH]c2c1` [II-10, 5-methyl-N4-(2-oxo-2,3-dihydro-1,3-benzoxazol-5-yl)-N2-(1-oxo-1,3-dihydro-isobenzofuran-5-yl)-2,4-pyrimidinediamine], < 500 nM.
As for `CCN(CC)Cc1cc(Nc2nc(Nc3cc(C)c(C)c(C)c3)ncc2C)cc2[nH]c(=O)oc12` [Compound I-90, 7-((diethylamino)methyl)-5-(2-(3,4,5-trimethylphenylamino)-5-methylpyrimidin-4-ylamino)benzo[d]oxazol-2(3H)-one ditrifluoroacetate salt], the figure is 500 to 5000 nM; as for `COc1cc(C)cc(Nc2ncc(F)c(Nc3cc(F)c4oc(=O)[nH]c4c3)n2)c1` [Compound I-179, 5-(2-(3-methoxy-5-methylphenylamino)-5-fluoropyrimidin-4-ylamino)-7-fluorobenzo[d]oxazol-2(3H)-one trifluoroacetate salt], > 10000 nM.
